Molecules are shown by their SMILES. Bounds are passed on as bounds.

The target in the test is SAE1 (Homo sapiens (Human), UniProt Q9UBE0+Q9UBT2). Description: SAE High Throughput Biochemical Assay (HTRF), 15 min preincubation. The note with it: read-out: 15 min preincubation HTRF IC50 (μM) Ave, SAE1 12.5 nM, ATP 100 μM. How it is done: Assay buffer was prepared [50 mM HEPES, pH 7.5, 0.1% BSA and 10 mM MgCl2] as was the Stop Buffer [100 mM HEPES, pH 7.5, 0.05% Tween20, and 410 mM KF]. The 2×Reaction Buffer [80 nM SUMO-GST, 80 nM UBC9-His, 200 μM ATP and diluted in Assay Buffer] and Antibody Reaction Mix [13.34 nM anti-GSTXL665, 1.66 nM anti-His EuK and Diluted in Stop Buffer] were also prepared. Compounds were dissolved at 200×in DMSO in a 384-well plate. Serial dilutions were performed in DMSO for each compound, and then each concentration was diluted another 50-fold in Assay Buffer, to 4× the final concentration. 2.5 μL of each concentration was transferred into its own well in a 384-well plate. SAE1 was then diluted to 4× in Assay Buffer, and 2.5 μL of 4×SAE1 was mixed into each compound-containing well. After incubating for 15 minutes at RT, 5 μL of 2×Reaction Buffer was mixed into every well. Then after another 45 minutes at RT, 10 μL of Antibody Reaction Mix was added and mixed into every well. This plate was then read on an HTRF-compatible plate reader after 2 hours at RT, and again after sitting at RT overnight. [Final Component Concentrations: SAE1: 12.5 nM; SUMO-GST: 40 nM; UBC9-His: 40 nM; Anti-GST-XL665: 6.67 nM; Anti-His-EuK: 0.83 nM; and ATP: 100 μM] Alternatively, the compounds are tested at a single concentration of 25 micromolar and the percent of control is measured.
Chain of SAE1 (Q9UBE0 whole entry): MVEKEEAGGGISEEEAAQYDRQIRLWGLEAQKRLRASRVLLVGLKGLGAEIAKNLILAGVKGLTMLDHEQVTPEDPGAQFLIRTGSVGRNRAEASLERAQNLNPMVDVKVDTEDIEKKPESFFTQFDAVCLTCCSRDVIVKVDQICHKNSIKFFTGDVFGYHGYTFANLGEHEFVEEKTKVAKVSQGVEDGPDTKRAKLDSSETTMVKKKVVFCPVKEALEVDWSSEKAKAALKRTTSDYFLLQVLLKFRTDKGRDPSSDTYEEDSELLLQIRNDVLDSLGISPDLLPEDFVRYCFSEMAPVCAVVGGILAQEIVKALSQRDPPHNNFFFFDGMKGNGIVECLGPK
Chain of SAE1 (Q9UBT2 whole entry): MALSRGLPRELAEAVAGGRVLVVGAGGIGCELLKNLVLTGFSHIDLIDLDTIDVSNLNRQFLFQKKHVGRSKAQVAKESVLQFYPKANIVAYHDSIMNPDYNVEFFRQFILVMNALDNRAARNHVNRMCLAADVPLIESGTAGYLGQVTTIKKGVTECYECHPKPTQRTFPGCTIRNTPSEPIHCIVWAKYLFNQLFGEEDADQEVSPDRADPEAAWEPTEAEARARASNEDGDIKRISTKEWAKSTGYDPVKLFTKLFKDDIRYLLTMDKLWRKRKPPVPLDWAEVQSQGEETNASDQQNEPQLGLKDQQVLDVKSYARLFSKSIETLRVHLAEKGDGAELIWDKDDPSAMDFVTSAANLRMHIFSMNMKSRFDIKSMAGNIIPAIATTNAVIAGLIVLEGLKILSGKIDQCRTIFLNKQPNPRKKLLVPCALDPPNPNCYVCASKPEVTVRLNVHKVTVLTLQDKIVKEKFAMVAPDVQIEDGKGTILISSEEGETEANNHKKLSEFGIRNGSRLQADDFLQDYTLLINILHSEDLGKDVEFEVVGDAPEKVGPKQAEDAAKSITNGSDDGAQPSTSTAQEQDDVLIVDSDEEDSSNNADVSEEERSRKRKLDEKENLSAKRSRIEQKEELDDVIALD
On the technique in general: Time-resolved FRET reads energy transfer from a long-lived donor to a nearby acceptor.
`C=CC(=O)N1Cc2sc(C#N)cc2C(c2ccc(N)cc2-c2cn(CC)nc2C(F)(F)F)C1` (stereo not shown) [Compound 228]: the concentration for half-maximal inhibition (IC50) (usually the concentration that gives 50% inhibition) is 2.07 µM.
As to `CN(C)C/C=C/C(=O)N1Cc2sc(C#N)cc2[C@H](c2ccccc2C#N)C1` [Example 4, (S, E)-4-(2-Cyanophenyl)-6-(4-(dimethylamino)but-2-enoyl)-4,5,6,7-tetrahydrothieno[2,3-c]pyridine-2-carbonitrile], the IC50 was more than 25 µM.
With `CCn1cc(-c2ccccc2[C@@H]2CN(C(=O)/C=C/CN3CCC[C@H]3C(=O)O)Cc3sc(C#N)cc32)c(C(F)(F)F)n1` [Example 6, ((E)-4-((S)-2-cyano-4-(2-(1-ethyl-3-(trifluoromethyl)-1 H-pyrazol-4-yl)phenyl)-4,7-dihydrothieno[2,3-c]pyridin-6(5H)-yl)-4-oxobut-2-en-1-yl)proline] the figure was 7.43 µM; with `CCn1cc(-c2ccccc2[C@@H]2CN(C(=O)/C=C/CN(C)C)Cc3sc(C#N)cc32)c(C(C)(F)F)n1` [Example 10, (S, E)-4-(2-(3-(1,1-difluoroethyl)-1-ethyl-1H-pyrazol-4-yl)phenyl)-6-(4-(dimethylamino)but-2-enoyl)-4,5,6,7-tetrahydrothieno[2,3-c]pyridine-2-carbonitrile], 13.4 µM.
As for `CCn1cc(-c2ccccc2[C@@H]2CN(C(=O)/C=C/CCN(C)C)Cc3sc(C#N)cc32)c(C(F)(F)F)n1` [Example 16], the IC50 was determined as 18.1 µM.
Take `CN(C)C/C=C/C(=O)N1Cc2sc(C#N)cc2[C@H](c2ccccc2-c2cn(CC(F)F)nc2C(F)(F)F)C1` [Example 18, (S,E)-4-(2-(1-(2,2-difluoroethyl)-3-(trifluoromethyl)-1 H-pyrazol-4-yl)phenyl)-6-(4-(dimethylamino)but-2-enoyl)-4,5,6,7-tetrahydrothieno[2,3-c]pyridine-2-carbonitrile]: the IC50 was determined as 8.99 µM.
Consider `CN(C)C/C=C/C(=O)N1Cc2sc(C#N)cc2[C@H](c2ccccc2-c2cn(CC(F)(F)F)nc2C(F)(F)F)C1` [Example 19, (S, E)-6-(4-(Dimethylamino)but-2-enoyl)-4-(2-(1-(2,2,2-trifluoroethyl)-3-(trifluoromethyl)-1 H-pyrazol-4-yl)phenyl)-4,5,6,7-tetrahydrothieno[2,3-c]pyridine-2-carbonitrile], for which the IC50 stood at 6.12 µM.
Turning to `CCn1cc(-c2ccccc2[C@@H]2CN(C(=O)/C=C/C(c3ccccc3)N(C)C)Cc3sc(C#N)cc32)c(C(F)(F)F)n1` (stereo partly drawn) [Example 26, (4S)-6-((E)-4-(Dimethylamino)-4-phenylbut-2-enoyl)-4-(2-(1-ethyl-3-(trifluoromethyl)-1 H-pyrazol-4-yl)phenyl)-4,5,6,7-tetrahydrothieno[2,3-c]pyridine-2-carbonitrile], the IC50 was determined as 7.92 µM.
With `CCn1cc(-c2ccccc2[C@@H]2CN(C(=O)/C=C/CN(C)Cc3ccccc3)Cc3sc(C#N)cc32)c(C(F)(F)F)n1` [Example 33, (S, E)-6-(4-(benzyl(methyl)amino)but-2-enoyl)-4-(2-(1-ethyl-3-(trifluoromethyl)-1 H-pyrazol-4-yl)phenyl)-4,5,6,7-tetrahydrothieno[2,3-c]pyridine-2-carbonitrile] the figure was 8.44 µM.
In the case of `CCn1cc(-c2ccccc2[C@@H]2CN(C(=O)/C=C/CN3CCC(c4ccccc4)C3)Cc3sc(C#N)cc32)c(C(F)(F)F)n1` (stereo partly drawn) [Example 35, (4S)-4-(2-(1-ethyl-3-(trifluoromethyl)-1 H-pyrazol-4-yl)phenyl)-6-((E)-4-(3-phenylpyrrolidin-1-yl)but-2-enoyl)-4,5,6,7-tetrahydrothieno[2,3-c]pyridine-2-carbonitrile] it was more than 25 µM; in that of `CCn1cc(-c2ccccc2[C@@H]2CN(C(=O)/C=C/C(C)(C)N)Cc3sc(C#N)cc32)c(C(F)(F)F)n1` [Example 37, (S, E)-6-(4-amino-4-methylpent-2-enoyl)-4-(2-(1-ethyl-3-(trifluoromethyl)-1 H-pyrazol-4-yl)phenyl)-4,5,6,7-tetrahydrothieno[2,3-c]pyridine-2-carbonitrile], more than 25 µM.
On to `CCn1cc(-c2ccccc2[C@@H]2CN(C(=O)/C=C/C(C)(C)NC)Cc3sc(C#N)cc32)c(C(F)(F)F)n1` [Example 38, (S, E)-4-(2-(1-ethyl-3-(trifluoromethyl)-1 H-pyrazol-4-yl)phenyl)-6-(4-methyl-4-(methylamino)pent-2-enoyl)-4,5,6,7-tetrahydrothieno[2,3-c]pyridine-2-carbonitrile], for which the IC50 was more than 25 µM.
In the case of `CCn1cc(-c2ccccc2[C@@H]2CN(C(=O)/C=C/[C@H](C)N)Cc3sc(C#N)cc32)c(C(F)(F)F)n1` [Example 49, (S)-6-((S,E)-4-aminopent-2-enoyl)-4-(2-(1-ethyl-3-(trifluoromethyl)11 H-pyrazol-4-yl)phenyl)-4,5,6,7-tetrahydrothieno[2,3-c]pyridine-2-carbonitrile] it was 10.1 µM; in that of `CCn1cc(-c2c(F)cccc2[C@@H]2CN(C(=O)/C=C/CN[C@@H]3CCOC3)Cc3sc(C#N)cc32)c(C(F)(F)F)n1` [Example 55, (S)-4-(2-(1-ethyl-3-(trifluoromethyl)-1 H-pyrazol-4-yl)-3-fluorophenyl)-6-((E)-4-(((R)-tetrahydrofuran-3-yl)amino)but-2-enoyl)-4,5,6,7-tetrahydrothieno[2,3-c]pyridine-2-carbonitrile], 1.66 µM.
As for `CCn1cc(-c2c(F)cccc2[C@@H]2CN(C(=O)/C=C/CN[C@H]3CCOC3)Cc3sc(C#N)cc32)c(C(F)(F)F)n1` [Example 56, (S)-4-(2-(1-ethyl-3-(trifluoromethyl)-1 H-pyrazol-4-yl)-3-fluorophenyl)-6-((E)-4-(((S)-tetrahydrofuran-3-yl)amino)but-2-enoyl)-4,5,6,7-tetrahydrothieno[2,3-c]pyridine-2-carbonitrile], the IC50 is 1.09 µM.
With `CCn1cc(-c2c(F)cccc2[C@@H]2CN(C(=O)/C=C/CNC3CCN(C(C)=O)CC3)Cc3sc(C#N)cc32)c(C(F)(F)F)n1` [Example 57, (S, E)-6-(4-((1-acetylpiperidin-4-yl)amino)but-2-enoyl)-4-(2-(1-ethyl-3-(trifluoromethyl)-1 H-pyrazol-4-yl)-3-fluorophenyl)-4,5,6,7-tetrahydrothieno[2,3-c]pyridine-2-carbonitrile], the IC50 was more than 25 µM.
For the compound `CCn1cc(-c2c(F)cccc2[C@@H]2CN(C(=O)/C=C/CNC3CCN(C(C)=O)C3)Cc3sc(C#N)cc32)c(C(F)(F)F)n1` (stereo partly drawn) [Example 58, (4S)-6-((E)-4-((1-acetylpyrrolidin-3-yl)amino)but-2-enoyl)-4-(2-(1-ethyl-3-(trifluoromethyl)-1 H-pyrazol-4-yl)-3-fluorophenyl)-4,5,6,7-tetrahydrothieno[2,3-c]pyridine-2-carbonitrile], the IC50 came out at 6.06 µM.
In the case of `C=C(CO)C(=O)N1Cc2sc(C#N)cc2[C@H](c2ccccc2-c2cn(CC)nc2C(F)(F)F)C1` [Example 62, (S)-4-(2-(1-Ethyl-3-(trifluoromethyl)-1 H pyrazol-4-yl)phenyl)-6-(2-(hydroxymethyl)acryloyl)-4,5,6,7-tetrahydrothieno[2,3-c]pyridine-2-carbonitrile] it was more than 25 µM; in that of `C=C(C(=O)N1Cc2sc(C#N)cc2[C@H](c2ccccc2-c2cn(CC)nc2C(F)(F)F)C1)c1ccccc1` [Example 63, (S)-4-(2-(1-Ethyl-3-(trifluoromethyl)-1H pyrazol-4-yl)phenyl)-6-(2-phenylacryloyl)-4,5,6,7-tetrahydrothieno[2,3-c]pyridine-2-carbonitrile], more than 25 µM.

Source of the values: patent US20240360148A1 (SUVALENT THERAPEUTICS, INC., priority 2021, published 2024).
